Measurements published in US20260033491A1, “FUNGAL SPORE FORMULATIONS INCLUDING CARRIER FLUIDS” (priority 2018, published 2026).
Marks after values point to notes of the source that are not given here.

Test system: Purpureocillium lilacinum spores
Experiment: Spore viability (germination rate) of Purpureocillium lilacinum spores dispersed in fluid and stored at 30° C.
Type: cell-based
Settings: P. lilacinum spores in fluid
Description: 3 g of Purpureocillium lilacinum pure spore powder were transferred into a formulation vessel (IKA Type DT-20 mixing vessel with dispersion tool for Ultra Turrax) using a sterile spoon. 12 mL of fluid were added into the respective formulation vessel and dispersed using ultra turrax tube drive control for 1 min at 3000 rpm; change direction after 30 sec. After this 2.8 mL were transferred in four sample bottles (Wheaton Serum vial, Type I) leaving little headspace and closed tight using crimpneck caps (Macherey—Nagel type N 13). Afterwards all sample bottles were transferred to an incubator set at 30° C. and stored for a given time.
In regular intervals a sample was retrieved from the storage location and analyzed for spore viability. For this purpose, the original samples were thoroughly homogenized. Aliquots of 0.25 g or 250 μL of each sample were transferred into 50 mL falcon tubes. The tubes were filled up to 25 g using a sterile aqueous solution containing 2% Tween 80 and homogenized by vortexing to achieve the first dilution step (1:100 dilution). This dilution was used for further dilution and spotting on agar.
For these samples, an alternative dispersion/dilution method was applied where the oil phase was stripped from the spores first: 0.25 g or 250 μL of sample are weighted into a 2 mL Eppendorf tube, and 0.5 mL of 2% Tween 80 is added, and the mixture is transferred into an Eppendorf centrifuge where it is centrifuged for 1 min at 10.000 rpm. The supernatant (=upper oily phase) is discarded by using a pipette. […] 250 μL or 0.25 g of each sample were transferred into a sterile 50 mL Falcon tube. The tubes were filled up to 25 g using a sterile aqueous solution containing 2% Tween 80 and homogenized by vortexing to achieve the first dilution step (1:100 dilution). This dilution was used for further dilution and spotting on agar.
For evaluation of spore germination rate prepare a 1:30000 dilution based on the 1:100 dilution achieved by multiple automated dilution (pipetting robot, 96 well plate). Afterwards 12×12 cm agar plates were taken and spotted with 10 times 5 μL of each sample using an automated 12-Channel pipet. Wait until liquid is soaked up by agar and transfer agar plate to an incubator and incubate at 25° C. for 17 hours. Open the plate and place it under the microscope. Randomly chose one area per spot and record the number of germinated and non-germinated spores that are within the designated field. At least 200 spores per sample need to be evaluated. If needed count more than one field per spot.

SMILES | spore viability [%] at day 1 [%] | spore viability [%] after 5-6 w (35-40 d) (storage at 30° C., 35-40 d) [%] | spore viability [%] after 3 m (87-92 d) (storage at 30° C., 87-92 d) [%] | spore viability [%] taken after 7 m of storage (storage at 30° C., 7 m) | spore viability [%] after 2 w (12-15 d) (storage at 30° C., 12-15 d) [%] | spore viability [%] after 1 m (27-28 d) (storage at 30° C., 27-28 d) [%] | spore viability [%] after 2 m (51-55 d) (storage at 30° C., 51-55 d) [%]
CCCCOC(=O)CCCCC(=O)OCCCC [Adimoll DB, di-n-Butyl adipate] | 98.9 | 97.5 | 89.8 |  |  |  | 
CC(=O)OCC(COC(C)=O)OC(C)=O [Triacetin, Glycerin triacetate] | 98.3 |  |  | 69.4* % | 97.9 | 96.2 | 90.8
